Results taken from paper PMC12203311, “Design, synthesis, in silico and in vitro evaluation of pyrrole–indole hybrids as dual tubulin and aromatase inhibitors with potent anticancer activities” (RSC Advances, 2025).

Legend:
[1] = tested on: CCRF-CEM; test: NCI60 five-dose screen; assay type: cell-based; conditions: Homo sapiens, leukemia; for CC50: read-out: LC50 (the source's name)
[2] = tested on: HL-60 (TB); test: NCI60 five-dose screen; assay type: cell-based; conditions: Homo sapiens, leukemia; for CC50: read-out: LC50 (the source's name)
[3] = tested on: RPMI-8226; test: NCI60 five-dose screen; assay type: cell-based; conditions: Homo sapiens, RPMI-8226, leukemia; for CC50: read-out: LC50 (the source's name)
[4] = tested on: A549/ATCC; test: NCI60 five-dose screen; assay type: cell-based; conditions: Homo sapiens, NSC lung cancer; for CC50: read-out: LC50 (the source's name)
[5] = tested on: HOP-62; test: NCI60 five-dose screen; assay type: cell-based; conditions: Homo sapiens, HOP-62, NSC lung cancer; for CC50: read-out: LC50 (the source's name)
[6] = tested on: HOP-92; test: NCI60 five-dose screen; assay type: cell-based; conditions: Homo sapiens, HOP-92, NSC lung cancer; for CC50: read-out: LC50 (the source's name)
[7] = tested on: NCI-H226; test: NCI60 five-dose screen; assay type: cell-based; conditions: Homo sapiens, NCI-H226, NSC lung cancer; for CC50: read-out: LC50 (the source's name)
[8] = tested on: NCI-H23; test: NCI60 five-dose screen; assay type: cell-based; conditions: Homo sapiens, NCI-H23, NSC lung cancer; for CC50: read-out: LC50 (the source's name)
[9] = tested on: NCI-H460; test: NCI60 five-dose screen; assay type: cell-based; conditions: Homo sapiens, NCI-H460, NSC lung cancer; for CC50: read-out: LC50 (the source's name)
[10] = tested on: COLO 205; test: NCI60 five-dose screen; assay type: cell-based, human; conditions: Homo sapiens; for CC50: COLO 205, COLO 205, colon cancer, read-out: LC50 (the source's name); for GI50: COLO 205, colon cancer
[11] = tested on: HCT-15; test: NCI60 five-dose screen; assay type: cell-based; conditions: Homo sapiens, HCT-15, colon cancer; for CC50: read-out: LC50 (the source's name)
[12] = tested on: SF-268; test: NCI60 five-dose screen; assay type: cell-based; conditions: Homo sapiens, SF-268, CNS cancer; for CC50: read-out: LC50 (the source's name)
[13] = tested on: SF-295; test: NCI60 five-dose screen; assay type: cell-based; conditions: Homo sapiens, SF-295, CNS cancer; for CC50: read-out: LC50 (the source's name)
[14] = tested on: LOX IMVI; test: NCI60 five-dose screen; assay type: cell-based; conditions: Homo sapiens, melanoma; for CC50: read-out: LC50 (the source's name)
[15] = tested on: MALME-3M; test: NCI60 five-dose screen; assay type: cell-based; conditions: Homo sapiens, melanoma; for CC50: read-out: LC50 (the source's name)
[16] = tested on: MDA-MB-435; test: NCI60 five-dose screen; assay type: cell-based, human; conditions: Homo sapiens; for CC50: MDA-MB-435, MDA-MB-435, melanoma, read-out: LC50 (the source's name); for GI50: MDA-MB-435, melanoma
[17] = tested on: SK-MEL-28; test: NCI60 five-dose screen; assay type: cell-based; conditions: Homo sapiens, SK-MEL-28, melanoma; for CC50: read-out: LC50 (the source's name)
[18] = tested on: UACC-257; test: NCI60 five-dose screen; assay type: cell-based; conditions: Homo sapiens, UACC-257, melanoma; for CC50: read-out: LC50 (the source's name)
[19] = tested on: OVCAR-8; test: NCI60 five-dose screen; assay type: cell-based; conditions: Homo sapiens, OVCAR-8, ovarian cancer; for CC50: read-out: LC50 (the source's name)
[20] = tested on: SK-OV-3; test: NCI60 five-dose screen; assay type: cell-based; conditions: Homo sapiens, SK-OV-3, ovarian cancer; for CC50: read-out: LC50 (the source's name)
[21] = tested on: 786-0; test: NCI60 five-dose screen; assay type: cell-based; conditions: Homo sapiens, 786-0, renal cancer; for CC50: read-out: LC50 (the source's name)
[22] = tested on: A498; test: NCI60 five-dose screen; assay type: cell-based; conditions: Homo sapiens, A498, renal cancer; for CC50: read-out: LC50 (the source's name)
[23] = tested on: CAKI-1; test: NCI60 five-dose screen; assay type: cell-based; conditions: Homo sapiens, CAKI-1, renal cancer; for CC50: read-out: LC50 (the source's name)
[24] = tested on: RXF 393; test: NCI60 five-dose screen; assay type: cell-based; conditions: Homo sapiens, RXF 393, renal cancer; for CC50: read-out: LC50 (the source's name)
[25] = tested on: SN12C; test: NCI60 five-dose screen; assay type: cell-based; conditions: Homo sapiens, renal cancer; for CC50: read-out: LC50 (the source's name)
[26] = tested on: PC-3; test: NCI60 five-dose screen; assay type: cell-based; conditions: Homo sapiens, PC-3, prostate cancer; for CC50: read-out: LC50 (the source's name)
[27] = tested on: BT-549; test: NCI60 five-dose screen; assay type: cell-based; conditions: Homo sapiens, BT-549, breast cancer; for CC50: read-out: LC50 (the source's name)
[28] = tested on: MDA-MB-468; test: NCI60 five-dose screen; assay type: cell-based; conditions: Homo sapiens, MDA-MB-468, breast cancer; for CC50: read-out: LC50 (the source's name)
[29] = Cytotoxicity MTT assay, L929; assay type: cell-based, mouse; conditions: mouse, L929 fibroblast cells; MTT, 48 hours
Description: (§1) T47D (ATCC HTB-133) was purchased from Biomedia (Thailand) Co., LTD. L929 (ATCC CCL-1) was received as a gift from Prof. Tanapat Palaga, Department of Microbiology, Faculty of Science, Chulalongkorn University, Bangkok, Thailand. The cells were cultured in Dulbecco's Modified Eagle's Medium (DMEM; Gibco) supplemented with 10% fetal bovine serum (FBS; HyClone), 100 U mL^−1 penicillin and 100 µg mL^−1 streptomycin (Gibco) at 37 °C with 5% CO2.
(§2) The antiproliferative activity was determined by MTT assay. Briefly, the cells were plated into a 96-well microplate at the density of 10 000 cells per well. The cells were allowed to grow overnight before treated with the solutions of compounds in culture medium at the designated concentrations for 48 hours. The medium was then replaced with MTT solution (0.5 mg mL^−1 MTT in culture medium) and incubated for 3 hours. A 100 µL of DMSO was used to dissolve the produced formazan. Absorbance at 570 nm was then measured using a microplate reader (Varioskan™ LUX multimode microplate reader, Thermo Scientific™). Percent viability was calculated relative to the vehicle control (DMSO).

[30] = tested on: L929 normal mouse fibroblast cell line; test: Cytotoxicity MTT assay, L929; assay type: cell-based; conditions: IC50 (L929)/IC50 (T47D)
Description: as §1, §2

## O=C(N/N=C/c1ccc(C(=O)N2CCOCC2)[nH]1)c1[nH]c2ccc(Br)cc2c1-c1ccccc1 [Derivative 3n, (E)-5-Bromo-N′-((5-(morpholine-4-carbonyl)-1H-pyrrol-2-yl)methylene)-3-phenyl-1H-indole-2-carbohydrazide]
[1]
  GI50: 3.45 µM
  CC50: > 100 µM
[2]
  GI50: 1.84 µM
  CC50: 8.56 µM
[3]
  GI50: 4.5 µM
  CC50: > 100 µM
[4]
  GI50: 3.88 µM
  CC50: > 100 µM
[5]
  GI50: 3.36 µM
  CC50: 69.2 µM
[6]
  GI50: 6.14 µM
  CC50: > 100 µM
[7]
  GI50: 3.39 µM
  CC50: 81.7 µM
[8]
  GI50: 2.83 µM
  CC50: 69.8 µM
[9]
  GI50: 2.49 µM
  CC50: 54.1 µM
[10]
  CC50: 37.5 µM
  GI50: 3.12 µM
[11]
  GI50: 2.62 µM
  CC50: > 100 µM
[12]
  GI50: 2.51 µM
  CC50: > 100 µM
[13]
  GI50: 1.63 µM
  CC50: 31 µM
[14]
  GI50: 3.06 µM
  CC50: 71.2 µM
[15]
  GI50: 11.7 µM
  CC50: > 100 µM
[16]
  CC50: 55.4 µM
  GI50: 0.392 µM
[17]
  GI50: 6.1 µM
  CC50: > 100 µM
[18]
  GI50: 11.9 µM
  CC50: 94.4 µM
[19]
  GI50: 2.86 µM
  CC50: 43.1 µM
[20]
  GI50: 5.68 µM
  CC50: > 100 µM
[21]
  GI50: 2.86 µM
  CC50: 80.7 µM
[22]
  GI50: 3.53 µM
  CC50: 59.9 µM
[23]
  GI50: 1.46 µM
  CC50: > 100 µM
[24]
  GI50: 1.06 µM
  CC50: 14.7 µM
[25]
  GI50: 3.14 µM
  CC50: 79.7 µM
[26]
  GI50: 3.44 µM
  CC50: > 100 µM
[27]
  GI50: 2.36 µM
  CC50: 55.2 µM
[28]
  GI50: 1.98 µM
  CC50: 75.5 µM
[29]
  IC50 at 48 h: 21.8 ± 11.5 µM
[30]
  Selectivity index (SI): 4.04

## CCOC(=O)c1c[nH]c(/C=N/NC(=O)c2[nH]c3ccc(Br)cc3c2-c2ccccc2)c1 [Derivative 3j, Ethyl (E)-5-((2-(5-bromo-3-phenyl-1H-indole-2-carbonyl)hydrazono)methyl)-1H-pyrrole-3-carboxylate]
[1]
  GI50: 2.41 µM
  CC50: > 100 µM
[2]
  GI50: 1.5 µM
  CC50: 9.88 µM
[3]
  GI50: 2.52 µM
  CC50: > 100 µM
[4]
  GI50: 2.7 µM
  CC50: 51.8 µM
[5]
  GI50: 2.78 µM
  CC50: 54.4 µM
[6]
  GI50: 4.56 µM
  CC50: 58.6 µM
[7]
  GI50: 3.07 µM
  CC50: 41.3 µM
[8]
  GI50: 3.06 µM
  CC50: 46.4 µM
[9]
  GI50: 2.41 µM
  CC50: 23.1 µM
[10]
  CC50: 55.2 µM
  GI50: 2.49 µM
[11]
  GI50: 2.93 µM
  CC50: 51.9 µM
[12]
  GI50: 2.29 µM
  CC50: 46.3 µM
[13]
  GI50: 2.34 µM
  CC50: 24.4 µM
[14]
  GI50: 2.82 µM
  CC50: 40.9 µM
[15]
  GI50: 6.06 µM
  CC50: 54.9 µM
[16]
  CC50: 16.1 µM
  GI50: 1.09 µM
[17]
  GI50: 4.56 µM
  CC50: 45.8 µM
[18]
  GI50: 2.53 µM
  CC50: 51.8 µM
[19]
  GI50: 2.37 µM
  CC50: 23.7 µM
[20]
  GI50: 4.53 µM
  CC50: 45.3 µM
[21]
  GI50: 3.29 µM
  CC50: 44.7 µM
[22]
  GI50: 3.53 µM
  CC50: 43.4 µM
[23]
  GI50: 1.46 µM
  CC50: 40.5 µM
[24]
  GI50: 1.36 µM
  CC50: 22 µM
[25]
  GI50: 2.49 µM
  CC50: 33.3 µM
[26]
  GI50: 3.76 µM
  CC50: > 100 µM
[27]
  GI50: 2.23 µM
  CC50: 29.5 µM
[28]
  GI50: 2.47 µM
  CC50: 24.2 µM
[29]
  IC50 at 48 h: 12.2 ± 1 µM
[30]
  Selectivity index (SI): 1.17
